Assay results: patent publication US4636563A, “Antipsychotic γ-carbolines” (American Home Products Corporation, priority 1985, dated 1987)

How the values were obtained:
[1] = target: T1, serotonin-2 receptors (Rattus norvegicus, UniProt P14842); assay: Cortical 5-HT2 binding (brain cortical tissue); settings: for Ki: 95% confidence interval in brackets, read-out: Cortical 5-HT2 inhibition constant (Ki)
T1 construct: In an analogous test procedure employing brain cortical tissue; from tissue; host or cells: brain cortical tissue
T1 sequence (P14842 whole entry): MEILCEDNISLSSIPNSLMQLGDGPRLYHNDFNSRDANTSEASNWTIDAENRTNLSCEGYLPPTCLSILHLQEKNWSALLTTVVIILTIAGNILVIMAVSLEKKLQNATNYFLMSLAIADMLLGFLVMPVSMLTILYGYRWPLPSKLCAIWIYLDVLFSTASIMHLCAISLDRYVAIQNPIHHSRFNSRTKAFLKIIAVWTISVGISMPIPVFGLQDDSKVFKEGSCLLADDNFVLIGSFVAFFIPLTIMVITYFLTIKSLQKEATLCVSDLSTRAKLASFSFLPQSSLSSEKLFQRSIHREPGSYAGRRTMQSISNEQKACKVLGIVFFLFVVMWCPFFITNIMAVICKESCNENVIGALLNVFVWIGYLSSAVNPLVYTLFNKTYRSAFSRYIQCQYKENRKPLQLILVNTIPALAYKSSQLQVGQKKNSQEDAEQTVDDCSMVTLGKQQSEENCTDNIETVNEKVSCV
Text: (§1) The following examples illustrate the production of compounds of this invention. After each example the pharmacological evaluation for the compound produced is presented. The conditioned avoidance tests are reported as relative activity for the shelf-jump (S-J) at the intraperitoneal (i.p.) dose administered in mg/kg and the AB50 is presented for the lever-response (L-R) test at the oral (p.o.) dose in mg/kg. The inhibition constant is reported for limbic D-2 binding expressed in nM concentration. Similarly, the inhibition constant for cortical 5-HT2 binding is reported as the inhibition constant in nM concentration.

[2] = target: T2, limbic D-2 (dopamine receptor) (Rattus norvegicus, UniProt P61169); assay: Limbic D-2 binding (3H-spiroperidol, homogenized limbic brain tissue); settings: 95% confidence interval in brackets, read-out: Limbic D-2 inhibition constant (Ki)
T2 construct: from tissue; host or cells: homogenized limbic brain tissue
T2 sequence (P61169 whole entry): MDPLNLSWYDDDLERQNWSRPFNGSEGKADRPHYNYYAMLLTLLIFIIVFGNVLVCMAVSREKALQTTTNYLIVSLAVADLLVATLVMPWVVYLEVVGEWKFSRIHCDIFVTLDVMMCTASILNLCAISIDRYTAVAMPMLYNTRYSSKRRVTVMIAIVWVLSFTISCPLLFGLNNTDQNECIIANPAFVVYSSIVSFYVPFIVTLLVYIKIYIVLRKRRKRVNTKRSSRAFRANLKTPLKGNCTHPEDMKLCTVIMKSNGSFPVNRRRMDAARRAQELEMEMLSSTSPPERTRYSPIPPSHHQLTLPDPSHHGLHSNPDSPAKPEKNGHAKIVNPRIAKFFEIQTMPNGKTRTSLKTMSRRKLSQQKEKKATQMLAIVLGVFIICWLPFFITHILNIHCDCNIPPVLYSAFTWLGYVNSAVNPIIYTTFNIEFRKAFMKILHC
Procedure: Binding in the presence of the test compound is expressed as a percent of specific binding (total binding less binding in the presence of 1 μM (+)butaclamol). An inhibition constant (Ki) is calculated for each test compound to catagorize its limbic D-2 binding potential. The larger the number, the less potential for dopamine receptor binding and attendant side effects from administration of the antipsychotic agent.
as §1

[3] = system: conditioned avoidance responding (lever-response); assay: Conditioned avoidance, lever-response (L-R); type: in vivo, male CD rats; settings: Rattus norvegicus, po; 95% confidence interval in brackets; read-out: L-R AB50 (50% block in avoidance responding)
Text: (§2) The antipsychotic properties of the compounds of this invention were established by standard pharmacologically accepted procedures involving two conditioned avoidance studies in which trained male CD rats (Charles River), 400-450 gm body weight are exposed to a fifteen second warning tone (conditioned stimulus) continued for an additional fifteen seconds accompanied by electric shock. The rat can avoid the electric shock by depression of a response lever (lever-response) or in a different study by jumping to an exposed shelf (shelf-jump response). In either test situation, a response during the initial warning tone is considered an avoidance response while a response during shock delivery is considered an escape response. The avoidance response is determined and expressed as a percentage of total trials from an appropriate number of trials and a 50% block in avoidance responding (AB50) is obtained from a dose-effect regression line. The shelf-jump response test procedure follows that of Herman et al., Comm. in Psychopharm., 3, pp. 165-171 (1979).
as §1

[4] = system: conditioned avoidance responding (shelf-jump); assay: Conditioned avoidance, shelf-jump response (S-J); type: in vivo, male CD rats
Text: as §2, §1

Question: With `Fc1ccc2[nH]c3c(c2c1)CN(CCc1ccccn1)CC3` [Example 2, 8-Fluoro-2,3,4,5-tetrahydro-2-[2-(2-pyridinyl)ethyl]-1H-pyrido[4,3-b]indole] as the molecule, how does the Ki [1] read?
Answer: 173 nM

Question: And the Ki [2]?
Answer: 26 nM

Question: And the ED50 [3]?
Answer: 37.6 mg/kg

Question: And the S-J relative activity ([4]; 20 mg/kg i.p.)?
Answer: Active

Question: For `Fc1ccc2[nH]c3c(c2c1)CN(CCc1ccncc1)CC3` [Example 3, 8-Fluoro-2,3,4,5-tetrahydro-2-[2-(4-pyridinyl)ethyl]1H-pyrido[4,3-b]indole], which Ki [1] is on record?
Answer: 211 nM

Question: For `NCCc1ccc(O)c(O)c1` [dopamine, reference compound], which “Ki at serotonin-2 receptors” value ([1]; reference ligands) is on record?
Answer: inactive

Question: For `Fc1ccc2[nH]c3c(c2c1)CN(CCCCc1ccncc1)CC3` [Example 1, 8-Fluoro-2,3,4,5-tetrahydro-2-[4-(4-pyridinyl)butyl]-1H-pyrido[4,3-b]-indole], which Ki [1] is on record?
Answer: 480 nM

Question: What about the Ki [2] of the same molecule?
Answer: 143 nM

Question: And the ED50 [3]?
Answer: 15.1 mg/kg

Question: What about the S-J relative activity ([4]; 20 mg/kg i.p.) of the same molecule?
Answer: Active

Question: What does the source list for `Clc1ccc2[nH]c3c(c2c1)CN(CCc1ccc2ccccc2n1)CC3` [Example 10, 8-Chloro-2,3,4,5-tetrahydro-2-[2-(2-quinolinyl)ethyl]-1H-pyrido-[4,3-b]indole]?
Answer: Ki [2]: 82 nM; ED50 [3]: > 40 mg/kg; S-J relative activity ([4]; 40 mg/kg i.p.): Active

Question: Which Ki [1] does the source give for `Clc1ccc2[nH]c3c(c2c1)CN(CCCCc1ccncc1)CC3` [Example 8, 8-Chloro-2,3,4,5-tetrahydro-2-[4-(4-pyridinyl)butyl]-1H-pyrido[4,3-b]indole] here?
Answer: 60 nM

Question: What about the Ki [2] of the same molecule?
Answer: 106 nM

Question: And the ED50 [3]?
Answer: 36.1 mg/kg

Question: What about the S-J relative activity ([4]; 40 mg/kg i.p.) of the same molecule?
Answer: Active

Question: How did the ED50 [3] turn out when `c1ccc2c3c([nH]c2c1)CCN(CCCCc1ccncc1)C3` [Example 6, 2,3,4,5-Tetrahydro-2-[4-(4-pyridinyl)butyl]-1H-pyrido[4,3-b]indole] was run?
Answer: > 20 mg/kg

Question: And the S-J relative activity ([4]; 20 mg/kg i.p.)?
Answer: Active

Question: And the S-J relative activity ([4]; 40 mg/kg i.p.)?
Answer: Active

Question: `Clc1ccc2[nH]c3c(c2c1)CN(CCc1ccccn1)CC3` [Example 9, 8-Chloro-2,3,4,5-tetrahydro-2-[2-(2-pyridinyl)ethyl]-1H-pyrido[4,3-b]indole] was tested. Which ED50 [3] did it give?
Answer: > 40 mg/kg

Question: And the S-J relative activity ([4]; 40 mg/kg i.p.)?
Answer: Active

Question: With `Fc1ccc2[nH]c3c(c2c1)CN(CCCc1cccnc1)CC3` [Example 11, 8-Fluoro-2,3,4,5-tetrahydro-2-[3-(3-pyridinyl)propyl]1H-pyrido[4,3-b]indole] as the molecule, how does the Ki [1] read?
Answer: 136 nM

Question: And the Ki [2]?
Answer: 395 nM

Question: And the ED50 [3]?
Answer: 14.4 mg/kg

Question: And the S-J relative activity ([4]; 20 mg/kg i.p.)?
Answer: Active

Question: `c1ccc2nc(CCN3CCc4[nH]c5ccccc5c4C3)ccc2c1` [Example 5, 2,3,4,5-Tetrahydro-2-[2-(2-quinolinyl)ethyl]-1H-pyrido[4,3-b]indole] was tested. Which S-J relative activity ([4]; 40 mg/kg i.p.) did it give?
Answer: Active

Question: What does the source list for `Fc1ccc2[nH]c3c(c2c1)CN(CCc1ccc2ccccc2n1)CC3` [Example 4, 8-Fluoro-2,3,4,5-tetrahydro-2-[2-(2-quinolinyl)ethyl]-1H-pyrido[4-3-b]indole]?
Answer: Ki [2]: 185 nM; S-J relative activity ([4]; 20 mg/kg i.p.): Active

Question: For `Clc1ccc2[nH]c3c(c2c1)CN(CCCc1ccccn1)CC3` [Example 12, 8-Chloro-2,3,4,5-tetrahydro-2-[3-(2-pyridinyl)-propyl]-1H-pyrido[4,3-b]indole], which Ki [1] is on record?
Answer: 28 nM

Question: And the Ki [2]?
Answer: 126 nM

Question: What about the ED50 [3] of the same molecule?
Answer: > 40 mg/kg

Question: And the S-J relative activity ([4]; 40 mg/kg i.p.)?
Answer: Active

Question: Which results are given for `c1cncc(CCCN2CCc3[nH]c4ccccc4c3C2)c1` [Example 7, 2,3,4,5-Tetrahydro-2-[3-(3-pyridinyl)propyl]-1H-pyrido[4,3-b]indole]?
Answer: Ki [1]: 252 nM; ED50 [3]: 33.1 mg/kg; S-J relative activity ([4]; 40 mg/kg i.p.): Active
